In patent US4746663A, “Pyrazolo[4,3-d]pyrimidine derivative, process for its production, and antihyperlipidemic or antiatherosclerotic agent containing it” (Nissan Chemical Industries Ltd., priority 1985, dated 1988):
“Also recorded” adds a separate entry of the source.

Legend:
[1] = system: serum lipid; conditions: Science, 193, 903 (1976); J. Lipid Res., 12, 596 (1971); cited from earlier work
[2] = Test 2: acute toxicity; conditions: mouse, in vivo, po, 1000 mg/kg in corn oil, male ddY mice, after seven days
Method: The test compounds dissolved in corn oil were administered p.o. to male ddY mice. The acute toxicity was determined based on the mortality after seven days. In respect of the compounds of Examples 1 and 2 of the present invention, the mortality was 0% even at a dose of as high as 1000 mg/kg by oral administration.

[3] = system: emulsion-induced hyperlipidemic rats; experiment: Test 1: antihyperlipidemic activity in emulsion-induced hyperlipidemic rats; assay type: in vivo, Male S.D. rats; conditions: via stomach tube daily, 3 days; for Increase rate of serum HDLChol. / Reduction rate of serum Chol.: vs control group; for Degree of hepatomegaly (change rate of the liver weight): liver weight per 100 g body weight vs control group
Method: The antihyperlipidemic activity in emulsion-induced hyperlipidemic rats:
Male S.D. rats weighing 80-90 g (4 weeks old) were used. They were divided into groups of 5 to 6 rats each. The test compounds suspended in 0.5% CMC-Na(carboxymethyl cellulose sodium salt) were given to the rats in a daily dose of 4 ml/kg via stomach tube every 10:00 a.m. After 30 min., lipids emulsion having the following composition was orally given to the rats in an amount of 2.5 ml per rat.
During the experimental period of 3 days, the rats were fed on a standard commercial diet and water ad libitum. […] The total cholesterol and HDL cholesterol were measured.
The weight of the liver was measured. To the control group, only the aqueous CMC-Na solution and the lipids emulsion were given.
The fractionation of lipoproteins was conducted by a dextran sulfate-MgCl2 precipitation method.
Cholesterol in serum was measured by means of a cholesterol measuring kit (Cholesterol C-Test Wako, manufactured by Wako Junyaku Co., Ltd.), and cholesterol in HDL was measured by means of NC Hi-Set, manufactured by Nippon Chemiphar Co., Ltd.
Further, the reduction rate of Chol was calculated by the following equation. [formula] where A is the amount of serum Chol (mg/dl) of the control group, and B is the amount of serum Chol (mg/dl) of the group to which the therapeutic agent was administered.
Likewise, the increase rate of HDL-Chol was calculated by the following equation. [formula] where C is the amount of serum HDL-Chol (mg/dl) of the control group, and D is the amount of serum HDL-Chol (mg/dl) of the group to which the therapeutic agent was administered.
The degree of hepatomegaly (i.e. the change rate of the liver weight) was calculated by the following equation. [formula] where E is the liver weight (g) per 100 g of the body weight of the control group, and F is the liver weight (g) per 100 g of the body weight of the group to which the therapeutic agent was administered.

[4] = literature, in words; cited from earlier work
[5] = animal experiments; Cancer Res., 39, 3419 (1979); cited from earlier work
[6] = 300 mg/kg, minus value represents a reduction rate

## Nc1ncnc2[nH]ncc12 [1H-pyrazolo[3,4-d]pyrimidine-4-amine]
[1]
  function to reduce serum lipid: function to reduce serum lipid

## CCCCC/C=C\C/C=C\CCCCCCCCOc1c2ncnc(SCC(=O)O)c2nn1C [Example 1, 2-Methyl-3-linoleyloxy-7-carboxymethylthio-pyrazolo[4,3-d]pyrimidine]
[2]
  mortality at 168 h: 0%
[3]; 25 mg/kg
  Increase rate of serum HDLChol.: 21.8%
  Reduction rate of serum Chol.: 25.6%
  Degree of hepatomegaly (change rate of the liver weight): 6.0%
[3]; 50 mg/kg
  Increase rate of serum HDLChol.: 13.4%
  Reduction rate of serum Chol.: 35.5%
  Degree of hepatomegaly (change rate of the liver weight): 7.6%
[3]; 300 mg/kg
  Reduction rate of serum Chol.: 73.5%
  Degree of hepatomegaly (change rate of the liver weight): 17.8%
[3]; [6]
  Increase rate of serum HDLChol.: -17.7%

## CCCCCCCCCCCCCCCCOc1c2ncnc(SCC(=O)O)c2nn1C [Example 2, 2-Methyl-3-cetyloxy-7-carboxymethylthio-pyrazolo[4,3-d]pyrimidine]
[2]
  mortality at 168 h: 0%
[3]; 300 mg/kg
  Reduction rate of serum Chol.: 41.0%
  Degree of hepatomegaly (change rate of the liver weight): 9.2%
[3]; [6]
  Increase rate of serum HDLChol.: 14.1%

## O=C(O)c1cccnc1 [nicotinic acid]
[4]
  subsidiary ill effects: flashing or gastroenteric troubles

## CCOC(=O)C(C)(C)Oc1ccc(Cl)cc1 [Clofibrate, reference compound]
[5]
  hepatic carcinoma: brings about hepatic carcinoma
[4]
  subsidiary ill effects: myalgia or hepatic insufficiency; also recorded: likely to lead to gallstone formation
[3]; 300 mg/kg
  Reduction rate of serum Chol.: 35.6%
  Degree of hepatomegaly (change rate of the liver weight): 12.1%
[3]; [6]
  Increase rate of serum HDLChol.: -18.2%
